Three substances from patent publication US11918645B2, “Vaccines against hepatitis B virus” (priority 2012, dated 2024) can be followed below.

Experiment [1] addresses T1, HLA-DR13 (α1*01:01;β1*13:01) (Homo sapiens, UniProt P01903+P01911, A100E/A169T/K41T/L162R/M171V/P40S/Q125H/Q178H/Q39Y/Q99D/R42S/S66N/W38E/Y61H).
T1 construct: purchased ProImmune
As to the kind of experiment: ProImmune REVEAL MHC class II binding assay of long peptides. Conditions: percentage of the signal of the positive control peptide; positive binding score >=15%. The source says: (§1) The highly frequent HLA class II alleles HLA-DR1 (α1*01:01;β1*01:01), HLA-DR15 (α1*01:01;β1*15:01), HLA-DR3 (α1*01:01;β1*03:01), HLA-DR4 (α1*01:01;β1*04:01), HLA-DR11 (α1*01:01;β1*11:01), HLA-DR13 (α1*01:01;β1*13:01), and HLA-DR7 (α1*01:01;β1*07:01) were selected. Each peptide was given a score relative to the positive control peptide, which is a known T-cell epitope.

The test system of experiment [2] is HLA class II alleles. As to the kind of experiment: ProImmune REVEAL MHC class II binding assay, summary over the seven alleles. The following applies: number of class II alleles for which positive binding (score >=15%) was detected. Also noted: species or system human. The source says:
(§2) The highly frequent HLA class II alleles HLA-DR1 (α1*01:01;β1*01:01), HLA-DR15 (α1*01:01;β1*15:01), HLA-DR3 (α1*01:01;β1*03:01), HLA-DR4 (α1*01:01;β1*04:01), HLA-DR11 (α1*01:01;β1*11:01), HLA-DR13 (α1*01:01;β1*13:01), and HLA-DR7 (α1*01:01;β1*07:01) were selected. Each peptide was given a score relative to the positive control peptide, which is a known T-cell epitope. The score of the test peptide is reported quantitatively as a percentage of the signal generated by the positive control peptide, and the peptide is indicated as having a putative pass or fail result. Good binders are considered to be those peptides with scores >=15% of the positive control as defined by Proimmune.

Experiment [3] concerns HLA-DR11 (α1*01:01;β1*11:01). As to the kind of experiment: ProImmune REVEAL MHC class II binding assay of long peptides. Also noted: species or system human. The following applies: percentage of the signal of the positive control peptide; positive binding score >=15%.
Description: as §1

In experiment [4] the test system is HLA-DR3 (α1*01:01;β1*03:0). The experiment is described as above. Conditions: percentage of the signal of the positive control peptide; positive binding score >=15%. Also noted: species or system human.
Description: as §2

For experiment [5], the system named is HLA-DR1 (α1*01:01;β1*01:01). The description is as above. Further details: species or system human. Conditions: percentage of the signal of the positive control peptide; positive binding score >=15%.
Description: as §2

The subject of experiment [6] is BALB/c mice. Nature of the experiment: Immunogenicity in mice, IFNγ ELISpot of splenocytes, FP02.1 vs NP02.1 (Example 6). Type of experiment: in vivo. The following applies: mice immunised with FP02.1 or NP02.1, restimulation 5 μg/mL/peptide, FIG. 15. As for the experimental part: The immunogenicity in mice of FP02.1 (containing nine fluorocarbon-conjugated peptides) was compared to NP02.1 (containing nine equivalent unconjugated peptides).
Alternatively, splenocytes were stimulated in vitro with 5 μg/mL/peptide of nine individual peptides for 18 hours in an ELISpot assay. The number of IFNγ+ spot forming cells (SFC) was counted. Plates then were washed with PBS, incubated with an IFNγ detection peroxidase-labelled antibody, followed by a substrate, according to the manufacturer's instructions.

T1 sequence (P01903 26-216, other chains not shown): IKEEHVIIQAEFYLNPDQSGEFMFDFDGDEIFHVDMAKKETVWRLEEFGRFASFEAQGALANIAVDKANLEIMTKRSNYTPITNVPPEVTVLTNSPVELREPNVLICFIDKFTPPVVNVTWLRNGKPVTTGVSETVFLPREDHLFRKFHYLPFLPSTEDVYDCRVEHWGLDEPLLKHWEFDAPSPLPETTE

In the case of “NP753(K): unconjugated HBV long peptide, core KK + 738-770 (S to T at 743) + KKK (KKKEFGATVELLSFLPSDFFPSVRDLLDTASALYRKKK; HBV CONSENSUS SEQUENCE)”, the “binding score, HLA-DR13 (α1*01:01;β1*13:01)” value (from here on “binding score, HLA-DR13”) in experiment [1] amounted to 0.00%. Besides, the “Number of allele (a)” value in experiment [2] worked out at 0. In addition, the “binding score, HLA-DR11 (α1*01:01;β1*11:01)” value in experiment [3] stood at 1.51%. For the same substance, in experiment [4], the “binding score, HLA-DR3 (α1*01:01;β1*03:0)” value (“binding score, HLA-DR3” below) is 0.00%. In addition, in experiment [5], the “binding score, HLA-DR1 (α1*01:01;β1*01:01)” value was found to be 0.11%.

For “NP113: unconjugated HBV long peptide, polymerase region 96-130 of virtual HBV proteome (VGPLTVNEKRRLKLIMPARFYPNVTKYLPLDKGIK; HBV CONSENSUS SEQUENCE)”, in experiment [1], the “binding score, HLA-DR13” value is 0.00%. The “IFNγ response of splenocytes to each individual peptide component” value is “immune responses were dominated by four out of the 9 peptides contained in the vaccine” in experiment [6] and “only observed with the formulation containing the fluorocarbon-conjugated peptides” in experiment [6] (listed as P113). The “binding score, HLA-DR3” value in experiment [4] is 49.98%. In experiment [5], the “binding score, HLA-DR1 (α1*01:01;β1*01:01)” value was 54.44%.

Turning to “NP151: unconjugated HBV long peptide, polymerase region 134-168 (PEHVVNHYFQTRHYLHTLWKAGILYKRETTRSASF; HBV CONSENSUS SEQUENCE)”, in experiment [1], the “binding score, HLA-DR13” value turned out to be 0.00%. Further, in experiment [6], the “IFNγ response of splenocytes to each individual peptide component” value is given as “immune responses were dominated by four out of the 9 peptides contained in the vaccine”. Further, the “binding score, HLA-DR3” value in experiment [4] was determined as 0.00%. Besides, the “binding score, HLA-DR1 (α1*01:01;β1*01:01)” value in experiment [5] came out at 14.59%.
